According to the supplement of paper PMC3493320:

Tested on: NCI-H295R
Assay: IC50 (antiproliferative, ATP content)
Details: 48 h
Method in brief: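 Compounds were pin-transferred at 8 final concentrations between 0.6 nM and 46 µM onto adrenocortical carcinoma cells (1500 per well, 1536-well plates) that had been cultured overnight in serum-free DMEM with ITS. Plates then stood 48 h at 37 °C, 5% CO2, and ATP was detected by CellTiter-Glo luminescence. IC50 was derived from logistic fits of normalised signal, and compounds giving no concentration response were noted as above the top dose.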

IC50 [µM]	Compound
> 46	CC1=CCC2CC1C2(C)C (configuration not stated)
> 46	COc1ccccc1O
> 46	CCCCC1=NC2(CCCC2)C(=O)N1Cc1ccc(-c2ccccc2-c2nnn[nH]2)cc1
> 46	CC1(C)S[C@@H]2[C@H](/N=C/N3CCCCCC3)C(=O)N2[C@H]1C(=O)O
> 46	CC(=O)NC(=O)c1ccccc1O
> 46	O=P([O-])(O)C(O)(Cc1cccnc1)P(=O)([O-])O.[Na+].[Na+]
> 46	NC(=O)c1cn(Cc2c(F)cccc2F)nn1
> 46	O=C([C@H]3N[C@H]([C@](OCC)=O)CCC2=CC=CC=C2)N(CC(O)=O)C[C@H](SC3)[C@@]1=CC=CS1.Cl
> 46	CCCCCCCC/C=C\CCCCCCCC(=O)O
> 46	O=[C@@](OCC)[C@@H](N[C@@H](C)C(N2C(N(C)C[C@H]2[C@](O)=O)=O)=O)CCC1=CC=CC=C1.Cl
> 46	CC1=CC[C@@H](CC1)[C@@](O)(C)CC\C=C(/C)C
> 46	CC(=O)OCC(=O)[C@@]1(O)CC[C@H]2[C@@H]3CCC4=CC(=O)C=C[C@]4(C)[C@@]3(F)[C@@H](O)C[C@@]21C
> 46	CNC(=O)C(N)CSC(C)C1=C(C)c2cc3[n-]c(cc4nc(cc5[n-]c(cc1n2)c(C)c5CCC(=O)O)C(CCC(=O)O)=C4C)c(C)c3C(C)SCC(N)C(=O)NC.[Fe+2] (configuration not stated)
> 46	NC(=O)c1cnccn1
> 46	N=C(N)NCC1COc2ccccc2O1 (configuration not stated)
> 46	CS(=O)(=O)Nc1cc2\C=C(/Nc2cc1)C(=O)N3CCN(CC3)c4ncccc4NC(C)C
> 46	COc1ccc(C(=O)CCC(=O)O)c2ccccc12
> 46	COc1cc2c(cc1OC)C(=O)C(CC1CCN(Cc3ccccc3)CC1)C2.Cl (configuration not stated)
> 46	CC=CC(=O)N(CC)c1ccccc1C
> 46	C[S+](C)CCC(N)C(=O)O.[Cl-] (configuration not stated)
> 46	Cc1c(I)c(=O)n(-c2ccccc2)n1C
> 46	CN(C)CC/C=C1C(C=CC=C3)=C3C=CC2=C\1C=CC=C2.Cl
> 46	OB(O)O
> 46	CC(C)[C@H](CC)CC[C@@H](C)[C@H]3CC[C@H]2[C@@H]4C\C=C1\C[C@@H](O)CC[C@]1(C)[C@H]4CC[C@@]23C
> 46	O=C(CCN1CCN2CCCC2C1)N1c2ccccc2Sc2ccc(Cl)cc21 (configuration not stated)

IC50 [µM]	Compound
> 46	Cn1nnc2c(C(N)=O)ncn2c1=O
> 46	CC(C[N+](C)(C)C)OC(N)=O.[Cl-] (configuration not stated)
> 46	Cc1c(F)c(N2CCNC(C)C2)cc2c1c(=O)c(C(=O)O)cn2C1CC1.Cl (configuration not stated)
> 46	OCCO[C@@H]1[C@@H](O)[C@H](O)[C@@H](CO)O[C@@H]1O
> 46	CC(C)(C#N)c1cc(Cn2cncn2)cc(C(C)(C)C#N)c1
> 46	C=C1[C@H](CO)[C@@H](O)C[C@@H]1n1cnc2c(=O)[nH]c(N)nc21
> 46	CCCN[C@H]1CCc2nc(N)sc2C1
> 46	CC[C@H]1OC(=O)[C@H](C)C(=O)[C@H](C)[C@@H](O[C@@H]2O[C@H](C)C[C@H](N(C)C)[C@H]2O)[C@](C)(OC)C[C@@H](C)C(=O)[C@H](C)[C@H]2N(CCCCn3cnc(-c4cccnc4)c3)C(=O)O[C@]12C
> 46	Cc1cccc(C)c1NC(=O)c1ccccc1C(=O)O
> 46	CC(C)COC(=O)OCN1C(=O)CN(CCN2CC(=O)N(COC(=O)OCC(C)C)C(=O)C2)CC1=O
> 46	COc1ccc2c3c1O[C@H]1C[C@@H](O)C=C[C@@]31CCN(C)C2
> 46	CCN(CC)CCNC(=O)c1cc(S(C)(=O)=O)ccc1OC.Cl
> 46	O=C1[C@]([C@](CC4)([H])[C@@]3([H])[C@@](C1)(C)[C@@](CC3)(O)[C@@](CO)=O)([H])[C@](C=C2)(C)C4=CC2=O
> 46	CCCCN1CCCC[C@H]1C(=O)Nc1c(C)cccc1C.Cl
> 46	OCC(O)CS (configuration not stated)
> 46	FC(F)OC(Cl)C(F)(F)F (configuration not stated)
> 46	COC(=O)N/N=C/c1c[n+]([O-])c2ccccc2[n+]1[O-]
> 46	CCc1c2c(nc3ccc(OC(=O)N4CCC(N5CCCCC5)CC4)cc13)-c1cc3c(c(=O)n1C2)COC(=O)[C@]3(O)CC.Cl
> 46	Cl.O=C(c2cn(C)c1ccccc12)[C@H]3CC=4N\C=N/C=4CC3
> 46	c1ccc(-n2cnnn2)cc1
> 46	C[C@H](O)CN(C)C
> 46	Cl.O=C1OC(CN2CCOCC2)CN1N=Cc1ccc([N+](=O)[O-])o1 (configuration not stated)
> 46	CC=Cc1ccc(OC)cc1
> 46	CN1C(=O)CN2CCc3ccccc3C2c2cc(Cl)ccc21 (configuration not stated)
> 46	O=[C@](O)[C@@H]2CC1=C(CN2C([C@H](C)N[C@@H](CCC3=CC=CC=C3)[C@](OCC)=O)=O)C=C(OC)C(OC)=C1.Cl

IC50 [µM]	Compound
> 46	CC(=O)OCC(=O)[C@@]1(O)[C@H](C)C[C@H]2[C@@H]3CCC4=CC(=O)C=C[C@]4(C)[C@@]3(F)[C@@H](O)C[C@@]21C
> 46	COc1ccc(/C=C/C(=O)Nc2ccccc2C(=O)O)cc1OC
> 46	Cc1ncc([N+](=O)[O-])n1CC(O)CCl (configuration not stated)
> 46	CCOC(=O)[C@@H](N)CS.Cl
> 46	CCN(CC)CCC(=O)N1c2ccccc2Sc2ccc(C(F)(F)F)cc21
> 46	CCN1CCC[C@H]1CNC(=O)c1c(OC)ccc(Br)c1OC
> 46	N21/C(=C(/SCCNC=N)C[C@@H]1[C@H](C2=O)[C@H](O)C)C(=O)O
> 46	CN(C)C=Nc1c(I)cc(I)c(CCC(=O)[O-])c1I.[Na+]
> 46	c1ccc2c(c1)OCC(CN1CCCCC1)O2 (configuration not stated)
> 46	O=[C@]([O-])[C@@H]2N1C([C@@]([H])(N3C(C)(C)NC(C4=CC=CC=C4)C3=O)[C@]([H])1SC(C)2C)=O.[K+] (some centres not stated)
> 46	CN1[C@@H]2CC[C@H]1C[C@@H](OC(=O)c1c[nH]c3ccccc13)C2
> 46	CCN(CC)CCC(=O)N1c2ccccc2Sc2ccc(Cl)cc21
> 46	O=C2N1[C@]([C@@]([H])2NC(C3=C(C)ON=C3C(C(Cl)=CC=C4)=C4F)=O)([H])SC(C)(C)[C@@H]1[C@@]([O-])=O.[Na+]
> 46	Nc1ccc(S(=O)(=O)c2ccc(N)cc2)cc1
> 46	O=C1C=C3[C@]([C@@]2(F)[C@@H](O)C[C@@]4(C)[C@](C[C@@]5([H])OC(C)(C)O[C@@]45[C@@](CO)=O)([H])[C@@]([H])2C[C@@H]3F)(C)C=C1
> 46	CCCCC(=O)O[C@]1(C(=O)CO)CC[C@H]2[C@@H]3CCC4=CC(=O)CC[C@]4(C)[C@H]3[C@@H](O)C[C@@]21C
> 46	Nc1ccc(C(=O)Oc2ccccc2)c(O)c1
> 46	CCCCOC(=O)c1ccc(N)cc1
> 46	CN(C)[C@@H]1C(O)=C(C(N)=O)C(=O)[C@@]2(O)C(O)=C3C(=O)c4c(O)cccc4[C@@](C)(O)[C@H]3[C@H](O)[C@@H]12.Cl
> 46	O=C(O)c1ccccc1Nc1cccc(C(F)(F)F)c1
> 46	COc1ccc(Cl)cc1C(=O)NCCc1ccc(S(=O)(=O)NC(=O)NC2CCCCC2)cc1
> 46	C#C[C@]1(O)CC[C@H]2[C@@H]3CCC4=CC(=O)CC[C@@H]4[C@H]3CC[C@@]21C
> 46	CC1=NN(c2ccccc2)C(=O)C1

Compound	IC50 [µM]
CCCCCl	> 46
CN1CCN(C2=Nc3ccccc3Oc3ccc(Cl)cc32)CC1.O=C(O)CCC(=O)O	> 46
CCCCCCCCCC(=O)O[C@H]1CC[C@H]2[C@@H]3CCC4=CC(=O)CC[C@]4(C)[C@H]3CC[C@]12C	> 46
c1csc(C2(N3CCCCC3)CCCCC2)c1	> 46
NCC[C@H](O)C(=O)N[C@@H]1C[C@H](N)[C@@H](O[C@H]2O[C@H](CN)CC[C@H]2N)[C@H](O)[C@H]1O[C@H]1O[C@H](CO)[C@@H](O)[C@H](N)[C@H]1O.O=S(=O)(O)O	> 46
COc1cc2nc(N3CCN(C(=O)C4COc5ccccc5O4)CC3)nc(N)c2cc1OC.CS(=O)(=O)O (configuration not stated)	> 46
Nc1c2c(nc3ccccc13)CCCC2O.O=C(O)/C=C\C(=O)O (configuration not stated)	> 46
O=C(NC(O)C(Cl)(Cl)Cl)NC(O)C(Cl)(Cl)Cl (configuration not stated)	> 46
C[N+]1(CCCCC[N+]2(C)CCCC2)CCCC1.O=C([O-])[C@H](O)[C@@H](O)C(=O)O.O=C([O-])[C@H](O)[C@@H](O)C(=O)O	> 46
CN(C)C(=O)COC(=O)Cc1ccc(OC(=O)c2ccc(NC(=N)N)cc2)cc1.CS(=O)(=O)O	> 46
C=CCN1CC[C@]23CCCC[C@H]2[C@H]1Cc1ccc(O)cc13	> 46
Oc1ccc(Cl)cc1Cc1ccccc1	> 46
Cl.NCCc1cc(O)c(O)cc1O	> 46
Cc1c(Cl)c(=O)oc2cc(OP(=O)(OCCCl)OCCCl)ccc12	> 46
COc1ccc(CN2CCNCC2)c(OC)c1OC.Cl.Cl	> 46
O=C(O)c1nn(Cc2ccc(Cl)cc2Cl)c2ccccc12	> 46
CN1C[C@H](C(=O)N[C@]2(C)O[C@@]3(O)[C@@H]4CCCN4C(=O)[C@H](Cc4ccccc4)N3C2=O)C[C@@H]2c3cccc4[nH]cc(c34)C[C@H]21	> 46
CC(C)(C)NCC(O)c1ccccc1Cl.Cl (configuration not stated)	> 46
CCOP(=O)(OCC)OC(=CCl)c1ccc(Cl)cc1Cl	> 46
Nc1ccccc1C(=O)O	> 46
CC(=O)OO	> 46
[C@@]2\1(\C(=C/C(/C=C/1)=O)CC[C@@H]4[C@@H]2CC[C@@]3([C@](O)(C)CC[C@H]34)C)C	> 46
CN1CCN(CCCN2c3ccccc3Sc3ccc(S(=O)(=O)N(C)C)cc32)CC1.CS(=O)(=O)O.CS(=O)(=O)O	> 46
CN(C)CCN(Cc1ccccc1)c1ccccn1.O=C(O)CC(O)(CC(=O)O)C(=O)O	> 46
